“Also recorded” adds a separate entry of the source.
Tests used:
[1] = system: rabbit cornea burned with alkali; conditions: rabbit alkaline burn
Procedure: The rabbits were randomly divided into an alkaline burn group (n=5) and a peptide treated group (n=5). In the alkaline burn group, normal saline was administered 4 times daily and in the peptide-treated group, Hyp-[…] peptide of 10 mg/mL was administered 4 times daily, and the left eye was used as a control group.

[2] = system: human vascular endothelial cells (HUVEC); assay: Tubing assay (VEGF-induced tube formation); type: cell-based; conditions: 4 hours
Procedure: The antiangiogenic effect of hydroxy proline-GQDGLAGPK was confirmed by tubing assay using human vascular endothelial cells (HUVEC).
HUVEC cells were stained with calcein-AM and then dispensed on a Matrigel-coated 48-well plate, treated with collagen, CPI and CPII at concentrations together with 50 ng/ml of recombinant human VEGF, and after 4 hours of incubation at 37° C., tube formation was observed by fluorescence microscopy (Leica) and tube length was analyzed by Image lab software (Bio-Rad Laboratories).
Tubing assay using human vascular endothelial cells (HUVEC) was performed to confirm the anti-angiogenic effect of hydroxyl proline-GQDGLAGPK.

[3] = system: VEGF, VEGFR-1 (Flt-1), VEGR-2 (Flk-1) and Angiopoietin 2; conditions: mouse, 14 days after laser, 5 μg
Procedure: C57BL/6 mice were purchased from Orient Bio and the animal experiments was carried out in accordance with the guidelines approved by the University of Inje (No, 2013-053) and ARVO regarding animal use for eye and vision studies. 6-week-old C57BL/6 mice were treated with diode green laser (532 nm, 150 mW, 0.1 sec, […], photocoagulator) to damage the retinal optic nerve area. Immediately after laser irradiation, CP1, CPII and positive control group Avastin were dissolved in PBS and administered […] each per a day in the eyeball for 5 days. The above experiment for each experiment group was performed using both eyes of five mice each.

[4] = Tear amount by phenol red-impregnated cotton threads, dry eye model; type: in vivo, NOD.B10.H2b mice
Procedure: Tear production was measured by a method reported using phenol red-impregnated cotton threads (Zone-Quick, Oasis, Glendora, Calif.) (Villareal A L, Farley W, Pflugfelder S C. Effect of topical ophthalmic epinastine and olopatadine on tear volume in mice. Eye Contact Lens. 2006; 32 (6): 272-276.). […] The measured lachrymal fluid in the millimeter was compared with a standard curve expressed as a cotton thread which was soaked with the expected tear amount of mouse of basic solution ([…] of 0.9% salt and 5 mL of 5 N NaOH) for 20 seconds.
The degree of tear generation was measured by phenol red-impregnated cotton threads.

corneal surface = assay: Corneal surface irregularity (smoothness) score, dry eye model; type: in vivo, NOD.B10.H2b mice
Procedure: (§1) NOD.B10.H2^b mice were purchased from Jackson Laboratory (Bar Harbor, Me., USA). Animal experiments were carried out in accordance with the guidelines approved by the University of Inje (No.; 2014-029) and ARVO regarding animal use for eye and vision research. NOD.B10.H2^b mice at 12-16 weeks old were exposed to 40-50% ambient humidity and ventilation using a fan for 18 hours a day as dry stress and subcutaneously injected with 0.5 mg/0.2 mL muscarinic receptor blocker. In addition, scopolamine hydrobromide (Sigma-Aldrich, St. Louis, Mo.) was injected alternately to the […] hips four times a day for 10 days at 9 am, […].
(§2) After 10 days of ocular dry stress, the scopolamine injection was stopped, and switched to a normal humidity and temperature environment and the dry stress was removed, 10 mg/ml Hyp-[…] and collagen were dissolved in normal saline to administer 5 μL each 5 times a day for 10 days, and normal saline and 0.1% HA were administered to the eyeball 5 times a day for 10 days. Three mice were used in each of the six experimental groups using both eyes of the mice and all experiments were repeated.
As for the curvature of the corneal surface, a reflected image of the white ring was obtained from an optical fiber ring illumination of a stereoscopic microscope (SZX7; Olympus) after anesthetizing the animal. Corneal smoothness was assessed by grading the irregularity of corneal epithelial cells reflected in the white ring of the digital image. Corneal irregularity severity score was calculated by dividing the reflection ring into quadrants and grading into 5 grades according to degree of irregularity. No irregularity is grade 0, irregularity of ¼ (quarter) is grade 1; irregularity of 2/4 (two-quarters) is grade 2; irregularity of ¾ (three-quarters) is grade 3; entire irregularity is grade 4; and […] and thus all the rings were confirmed.
The degree of corneal curvature in each experiment group was quantified to confirm the bendability of the corneal surface.

corneal epithelial cell = assay: Corneal epithelial cell detachment (H&E), dry eye model; type: in vivo, NOD.B10.H2b mice
Procedure: as §1, §2

[5] = system: conjunctival goblet cells; assay: Distribution of conjunctival goblet cells (PAS staining), dry eye model; type: in vivo, NOD.B10.H2b mice
Procedure: as §1, §2
The distribution of conjunctival goblet cells according to eye drop in dry eye mice was observed.

[6] = system: TNF-α, ICAM-1, VCAM-1, MMP-2 and MMP-9; conditions: 10 days of treatment after removal of dry stress
Procedure: as §1, §2

With “hydroxy proline-GQDGLAGPK [Hyp-GQDGLAGPK]” the “corneal neovascularization in H&E stained tissue” value ([1]; 10 days treatment) was “neovascularization was significantly improved”, the “histological changes of the cornea (epithelial proliferation, inflammatory cell invasion, edema, neovascularization)” value ([1]; 10 days treatment, H&E) was “showed an advanced improvement effect” and the corneal thickness ([1]; after 10 days of peptide treatment, normal 526.6, alkaline burn 960.6) was 550.0 μm. The “concentration dependence of tube formation inhibition” value ([2]; 50 ng/ml VEGF) was “concentration-dependent manner”, the “tube formation compared with the VEGF-untreated group” value ([2]; 50 ng/ml VEGF) was “decreased to almost same extent of angiogenesis of the VEGF-untreated group” and the “inhibition of tube formation (angiogenesis)” value ([2]; 50 ng/ml recombinant human VEGF, listed as CPII) was “significant inhibition of angiogenesis; also recorded: best anti-angiogenic efficacy; also recorded: best anti-angiogenic ability”. The “protein expression of VEGF, VEGFR-1, -2 and Angiopoietin 2 compared with Avastin” value [3] was “almost similar to that of Avastin”, the “protein expression of VEGF, VEGFR-1, VEGFR-2 and Angiopoietin 2 in retina and choroid” value ([3]; immunoblotting) was “markedly decreased” and the “tear amount increase vs DS 10D group” value ([4]; 10 days after treatment) was 7.9 times. The “tear amount relative to CsA treatment group” value ([4]; 10 days after treatment) was 1.7 times, the “tear amount relative to DQS treatment group” value ([4]; 10 days after treatment) was 1.4 times and the “tear amount relative to HA treatment group” value ([4]; 10 days after treatment) was 1.6 times. For the same substance, the “tear amount relative to collagen positive control group” value ([4]; 10 days after treatment) was “about 1.7 times”, the “tear amount relative to normal saline negative control group” value ([4]; 10 days after treatment) was “about 2.8 times” and the tear amount ([4]; 10 days of treatment after removal of dry stress, normal 0.22±0.01, DS 10D 0.03±0.01) was 0.23 ± 0.02 µL. The “decrease of corneal surface curvature score vs CsA group” value (corneal surface; day 10) was 40%, the “decrease of corneal surface curvature score vs DQS group” value (corneal surface; day 10) was 33.3% and the “decrease of corneal surface curvature score vs HA group” value (corneal surface; day 10) was 33.3%. The “decrease of corneal surface curvature score vs collagen group” value (corneal surface; day 10) was 45.5%, the “decrease of corneal surface curvature score vs normal saline group” value (corneal surface; day 10) was 40% and the “decrease of corneal surface curvature score vs dry stress (DS 10D)” value (corneal surface; day 10 after removal of dry stress) was 53.8%. For the same substance, the “degree of curvature (irregularity score) of the corneal surface” value (corneal surface; day 10 after removal of dry stress, grades 0-5, normal 0.33±0.58, DS 10D 4.33±0.58) was 2.0±0 points, the “reduction of corneal epithelial cell detachment vs CsA group” value (corneal epithelial cell; 10 days of treatment) was 75% and the “reduction of corneal epithelial cell detachment vs DQS group” value (corneal epithelial cell; 10 days of treatment) was 60%. The “reduction of corneal epithelial cell detachment vs HA group” value (corneal epithelial cell; 10 days of treatment) was 77.8%, the “reduction of corneal epithelial cell detachment vs collagen group” value (corneal epithelial cell; 10 days of treatment) was 55.6% and the “reduction of corneal epithelial cell detachment vs dry stress (DS 10D)” value (corneal epithelial cell; 10 days of treatment) was 83.3%. For the same substance, the “reduction of corneal epithelial cell detachment vs normal saline group” value (corneal epithelial cell; 10 days of treatment) was 71.4%, the “corneal epithelial cell detachment” value (corneal epithelial cell; 10 days of treatment after removal of dry stress, DS 10D 2.29±0.57) was 0.38±0.17 /0.1 mm^2 and the “goblet cell recovery vs dry stress (DS 10D)” value ([5]; 10 days of treatment) was 2.3 times. The “goblet cells relative to CsA group” value ([5]; 10 days of treatment) was 1.2 times, the “goblet cells relative to DQS group” value ([5]; 10 days of treatment) was 1.5 times and the “goblet cells relative to HA group” value ([5]; 10 days of treatment) was 1.6 times. The “goblet cells relative to collagen group” value ([5]; 10 days of treatment) was 1.3 times, the “goblet cells relative to normal saline group” value ([5]; 10 days of treatment) was 2.6 times and the “distribution of goblet cells in the conjunctiva (in words)” value ([5]; 10 days of treatment after removal of dry stress) was “significantly increased”. For the same substance, the conjunctival goblet cells ([5]; 10 days of treatment after removal of dry stress, normal 14.38±0.44, DS 10D 6.02±0.29) was 13.9±0.83 /0.1 mm^2, the “expression of inflammation-related factors in the lacrimal gland compared with CsA, DQS and HA treated mice” value [6] was “significantly inhibited” and the “expression of inflammation-related factors (TNF-α, ICAM-1, VCAM-1, MMP-2, MMP-9) in the lacrimal gland” value ([6]; immunostaining) was “markedly reduced”.
